Columns and labels:
[1] = system: human adrenal gland section expressing aldosterone-producing adenoma; test: In vitro autoradiography using human adrenal adenoma; type: binding; conditions: section of FIG. 17(a)
In short: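 Autoradiography readout: PSL in equal-sized ROIs over adenoma (B2) and normal adrenal cortex (B1), expressed as B2/B1 and decay-corrected using half-life, applied activity and plate contact time. Tissue was surgically excised human adrenal, frozen and cut at 7 μm, incubated 10 min with 5-33 kBq/mL tracer in BSA-containing PBS, then imaged after 16-20 h exposure.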

[2] = In vivo kinetics experiment (radioactivity distribution); set-up: species or system Wistar male rat; conditions: rat, caudal vein
In short: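 Tissue radioactivity (% ID/g) and adrenal-to-blood, liver, kidney, small intestine, muscle and fat ratios determined at 10, 30 and 60 min post-dose. Tracers (approximately 1 to 3.7 MBq, saline with 1 w/v % ascorbic acid) injected i.v. into caudal vein of anesthetized 9-week male Wistar rats; organs excised, weighed, counted.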

[3] = Plasma stability evaluation (TLC analysis); type: in vitro ADME; conditions: 37° C., 60 minutes, TLC analysis
In short: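 TLC analysis, using each compound's synthesis conditions, judged stability after methanol was added and samples were centrifuged to remove protein. Beforehand, each tracer had spent 60 minutes at 37° C in pooled heparinized normal human plasma.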

[123I]c1ccc2nc(-c3cncc(Cn4ccnc4)c3)n(C3CC3)c2c1 [[^123I] 602, 1-Cyclopropyl-2-[3-(1H-imidazol-1-ylmethyl)pyridin-5-yl]-6-[^123I]iodo-1H-benzimidazole]
B2/B1 accumulation ratio [1]: 2.06
B2 (PSL value, aldosterone-producing adenoma) ([1]; site 71a): 6142
B1 (PSL value, normal adrenal cortex) ([1]; site 72a): 2981
Adrenal gland/blood ratio of radioactivity accumulation ([2]; 10 min after administration): 28.34 ± 5.95
Adrenal gland/fat ratio of radioactivity accumulation ([2]; 10 min after administration): 89.23 ± 14.22
Adrenal gland/kidney ratio of radioactivity accumulation ([2]; 10 min after administration): 5.85 ± 1.07
Adrenal gland/liver ratio of radioactivity accumulation ([2]; 10 min after administration): 3.02 ± 0.41
Adrenal gland/muscle ratio of radioactivity accumulation ([2]; 10 min after administration): 54.21 ± 12.64
Adrenal gland/small intestine ratio of radioactivity accumulation ([2]; 10 min after administration): 6.95 ± 1.48
Radioactivity distribution Adrenal gland ([2]; 10 min after administration): 9.09 ± 2.28 % ID/g
Radioactivity distribution Bladder (including urine) ([2]; 10 min after administration): 0.32 ± 0.15 % ID/g
Radioactivity distribution Blood ([2]; 10 min after administration): 0.32 ± 0.01 % ID/g
Radioactivity distribution Fat ([2]; 10 min after administration): 0.10 ± 0.01 % ID/g
Radioactivity distribution Heart ([2]; 10 min after administration): 0.63 ± 0.07 % ID/g
Radioactivity distribution Kidney ([2]; 10 min after administration): 1.54 ± 0.11 % ID/g
Radioactivity distribution Large intestine ([2]; 10 min after administration): 0.19 ± 0.00 % ID/g
Radioactivity distribution Liver ([2]; 10 min after administration): 2.98 ± 0.35 % ID/g
Radioactivity distribution Lung ([2]; 10 min after administration): 1.06 ± 0.09 % ID/g
Radioactivity distribution Muscle (lower limbs) ([2]; 10 min after administration): 0.17 ± 0.00 % ID/g
Radioactivity distribution Remaining whole body ([2]; 10 min after administration): 0.27 ± 0.01 % ID/g
Radioactivity distribution Small intestine ([2]; 10 min after administration): 1.30 ± 0.05 % ID/g
Radioactivity distribution Spleen ([2]; 10 min after administration): 5.26 ± 1.78 % ID/g
Radioactivity distribution Stomach ([2]; 10 min after administration): 1.03 ± 0.28 % ID/g
Radioactivity distribution Testis ([2]; 10 min after administration): 0.07 ± 0.02 % ID/g
Radioactivity distribution Thyroid gland ([2]; 10 min after administration): 3.54 ± 0.37 % ID/g
Radioactivity distribution Whole brain ([2]; 10 min after administration): 0.02 ± 0.00 % ID/g
Adrenal gland/blood ratio of radioactivity accumulation ([2]; 30 min after administration): 40.26 ± 12.64
Adrenal gland/fat ratio of radioactivity accumulation ([2]; 30 min after administration): 147.73 ± 74.06
Adrenal gland/kidney ratio of radioactivity accumulation ([2]; 30 min after administration): 17.90 ± 4.66
Adrenal gland/liver ratio of radioactivity accumulation ([2]; 30 min after administration): 13.82 ± 3.67
Adrenal gland/muscle ratio of radioactivity accumulation ([2]; 30 min after administration): 110.91 ± 25.83
Adrenal gland/small intestine ratio of radioactivity accumulation ([2]; 30 min after administration): 9.24 ± 1.46
Radioactivity distribution Adrenal gland ([2]; 30 min after administration): 16.93 ± 3.32 % ID/g
Radioactivity distribution Bladder (including urine) ([2]; 30 min after administration): 1.35 ± 0.14 % ID/g
Radioactivity distribution Blood ([2]; 30 min after administration): 0.43 ± 0.05 % ID/g
Radioactivity distribution Fat ([2]; 30 min after administration): 0.12 ± 0.04 % ID/g
Radioactivity distribution Heart ([2]; 30 min after administration): 0.49 ± 0.01 % ID/g
Radioactivity distribution Kidney ([2]; 30 min after administration): 0.95 ± 0.06 % ID/g
Radioactivity distribution Large intestine ([2]; 30 min after administration): 0.19 ± 0.00 % ID/g
Radioactivity distribution Liver ([2]; 30 min after administration): 1.24 ± 0.09 % ID/g
Radioactivity distribution Lung ([2]; 30 min after administration): 0.76 ± 0.04 % ID/g
Radioactivity distribution Muscle (lower limbs) ([2]; 30 min after administration): 0.15 ± 0.01 % ID/g
Radioactivity distribution Remaining whole body ([2]; 30 min after administration): 0.31 ± 0.01 % ID/g
Radioactivity distribution Small intestine ([2]; 30 min after administration): 1.83 ± 0.07 % ID/g
Radioactivity distribution Spleen ([2]; 30 min after administration): 5.44 ± 1.82 % ID/g
Radioactivity distribution Stomach ([2]; 30 min after administration): 2.24 ± 0.39 % ID/g
Radioactivity distribution Testis ([2]; 30 min after administration): 0.12 ± 0.00 % ID/g
Radioactivity distribution Thyroid gland ([2]; 30 min after administration): 9.97 ± 0.74 % ID/g
Radioactivity distribution Whole brain ([2]; 30 min after administration): 0.02 ± 0.00 % ID/g
Adrenal gland/blood ratio of radioactivity accumulation ([2]; 60 min after administration): 29.41 ± 3.13
Adrenal gland/fat ratio of radioactivity accumulation ([2]; 60 min after administration): 105.17 ± 28.98
Adrenal gland/kidney ratio of radioactivity accumulation ([2]; 60 min after administration): 18.87 ± 3.12
Adrenal gland/liver ratio of radioactivity accumulation ([2]; 60 min after administration): 16.66 ± 3.13
Adrenal gland/muscle ratio of radioactivity accumulation ([2]; 60 min after administration): 95.38 ± 22.07
Adrenal gland/small intestine ratio of radioactivity accumulation ([2]; 60 min after administration): 6.64 ± 2.31
Radioactivity distribution Adrenal gland ([2]; 60 min after administration): 11.65 ± 1.54 % ID/g
Radioactivity distribution Bladder (including urine) ([2]; 60 min after administration): 1.27 ± 0.07 % ID/g
Radioactivity distribution Blood ([2]; 60 min after administration): 0.40 ± 0.01 % ID/g
Radioactivity distribution Fat ([2]; 60 min after administration): 0.11 ± 0.02 % ID/g
Radioactivity distribution Heart ([2]; 60 min after administration): 0.35 ± 0.03 % ID/g
Radioactivity distribution Kidney ([2]; 60 min after administration): 0.62 ± 0.08 % ID/g
Radioactivity distribution Large intestine ([2]; 60 min after administration): 0.43 ± 0.19 % ID/g
Radioactivity distribution Liver ([2]; 60 min after administration): 0.70 ± 0.05 % ID/g
Radioactivity distribution Lung ([2]; 60 min after administration): 0.60 ± 0.03 % ID/g
Radioactivity distribution Muscle (lower limbs) ([2]; 60 min after administration): 0.12 ± 0.02 % ID/g
Radioactivity distribution Remaining whole body ([2]; 60 min after administration): 0.33 ± 0.02 % ID/g
Radioactivity distribution Small intestine ([2]; 60 min after administration): 1.85 ± 0.44 % ID/g
Radioactivity distribution Spleen ([2]; 60 min after administration): 5.27 ± 0.89 % ID/g
Radioactivity distribution Stomach ([2]; 60 min after administration): 4.35 ± 0.25 % ID/g
Radioactivity distribution Testis ([2]; 60 min after administration): 0.15 ± 0.01 % ID/g
Radioactivity distribution Thyroid gland ([2]; 60 min after administration): 19.76 ± 1.03 % ID/g
Radioactivity distribution Whole brain ([2]; 60 min after administration): 0.02 ± 0.00 % ID/g
Radiochemical purity after incubation in human plasma [3]: 82%

Reference: US10358434B2, “2-(3-pyridinyl)-1H-benzimidazole derivative compound and medicament containing same” (NIHON MEDI-PHYSICS CO., LTD., priority 2014, dated 2019)
